Assay results reported in the kinase profiling compilation of Christmann-Franck et al. (2016).

Each compound was assayed against HIPK4 (human) (UniProt Q8NE63) (assay: radiometric filter-binding kinase assay, Kinase HotSpot). Details: compound 0.5 µM; ATP 10 µM.

SMILES | residual activity
O=C1NC(=O)c2c1c1c3ccccc3[nH]c1c1[nH]c3cc(Br)ccc3c21 | 94.1%
O=c1[nH]c2ccccc2n1C1CCN(Cc2ccc(-c3nc4cc5[nH]cnc5cc4nc3-c3ccccc3)cc2)CC1 | 99.3%

Each compound was assayed against STK39 (human) (UniProt Q9UEW8) in the same assay as above. Details: compound 0.5 µM.

SMILES | residual activity
O=c1[nH]c2ccccc2n1C1CCN(Cc2ccc(-c3nc4cc5[nH]cnc5cc4nc3-c3ccccc3)cc2)CC1 | 98.2%

Same assay, conditions: compound 0.5 µM; ATP 10 µM

SMILES | residual activity
COc1cc2c(N3CCN(C(=O)Nc4ccc(OC(C)C)cc4)CC3)ncnc2cc1OCCCN1CCCCC1 | 93.2%
N#C/C(=C1/Nc2ccccc2S1)c1ccnc(NCCc2cccnc2)n1 | 96.9%
O=C1NC(=O)c2c1c1c3ccccc3[nH]c1c1[nH]c3cc(Br)ccc3c21 | 90.7%

The compounds below were run against ADRBK1 (human) (UniProt P25098) in the same assay as above. Details: compound 0.5 µM; ATP 10 µM.

SMILES | residual activity
COc1cc2c(N3CCN(C(=O)Nc4ccc(OC(C)C)cc4)CC3)ncnc2cc1OCCCN1CCCCC1 | 98%
N#C/C(=C1/Nc2ccccc2S1)c1ccnc(NCCc2cccnc2)n1 | 103%
O=C1NC(=O)c2c1c1c3ccccc3[nH]c1c1[nH]c3cc(Br)ccc3c21 | 97.6%
O=c1[nH]c2ccccc2n1C1CCN(Cc2ccc(-c3nc4cc5[nH]cnc5cc4nc3-c3ccccc3)cc2)CC1 | 95.3%

Each compound was assayed against PDPK1 (human) (UniProt O15530) in the same assay as above. Details: compound 0.5 µM; ATP 10 µM.

SMILES | residual activity
COc1cc2c(N3CCN(C(=O)Nc4ccc(OC(C)C)cc4)CC3)ncnc2cc1OCCCN1CCCCC1 | 96.8%
N#C/C(=C1/Nc2ccccc2S1)c1ccnc(NCCc2cccnc2)n1 | 95.9%
O=C1NC(=O)c2c1c1c3ccccc3[nH]c1c1[nH]c3cc(Br)ccc3c21 | 66.1%
O=c1[nH]c2ccccc2n1C1CCN(Cc2ccc(-c3nc4cc5[nH]cnc5cc4nc3-c3ccccc3)cc2)CC1 | 107%

The compounds below were run against EPHA2 (human) (UniProt P29317) in the same assay as above. Details: compound 0.5 µM; ATP 10 µM.

SMILES | residual activity
COc1cc2c(N3CCN(C(=O)Nc4ccc(OC(C)C)cc4)CC3)ncnc2cc1OCCCN1CCCCC1 | 102%
N#C/C(=C1/Nc2ccccc2S1)c1ccnc(NCCc2cccnc2)n1 | 103%
O=C1NC(=O)c2c1c1c3ccccc3[nH]c1c1[nH]c3cc(Br)ccc3c21 | 99.2%
O=c1[nH]c2ccccc2n1C1CCN(Cc2ccc(-c3nc4cc5[nH]cnc5cc4nc3-c3ccccc3)cc2)CC1 | 103%

What follows are compounds tested against MAP2K1 (human) (UniProt Q02750) in the same assay as above. Details: compound 0.5 µM; ATP 10 µM.
MAP2K1 (human), sequence (Q02750 whole entry, looked up): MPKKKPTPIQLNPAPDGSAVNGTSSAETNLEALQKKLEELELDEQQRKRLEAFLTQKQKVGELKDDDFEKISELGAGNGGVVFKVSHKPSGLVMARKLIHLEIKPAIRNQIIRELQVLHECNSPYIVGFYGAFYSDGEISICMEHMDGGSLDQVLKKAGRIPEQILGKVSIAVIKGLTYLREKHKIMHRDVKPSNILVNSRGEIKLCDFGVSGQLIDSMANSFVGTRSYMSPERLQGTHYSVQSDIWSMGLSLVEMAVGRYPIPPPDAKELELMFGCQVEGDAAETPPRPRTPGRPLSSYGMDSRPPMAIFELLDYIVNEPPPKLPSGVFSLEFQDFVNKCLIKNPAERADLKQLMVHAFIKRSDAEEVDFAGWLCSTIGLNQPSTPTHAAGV

SMILES | residual activity
COc1cc2c(N3CCN(C(=O)Nc4ccc(OC(C)C)cc4)CC3)ncnc2cc1OCCCN1CCCCC1 | 113%
N#C/C(=C1/Nc2ccccc2S1)c1ccnc(NCCc2cccnc2)n1 | 93.2%
O=C1NC(=O)c2c1c1c3ccccc3[nH]c1c1[nH]c3cc(Br)ccc3c21 | 90.3%
O=c1[nH]c2ccccc2n1C1CCN(Cc2ccc(-c3nc4cc5[nH]cnc5cc4nc3-c3ccccc3)cc2)CC1 | 96.8%

The compounds below were run against STK25 (human) (UniProt O00506) in the same assay as above. Details: compound 0.5 µM; ATP 10 µM.
STK25 (human), sequence (O00506 whole entry, looked up): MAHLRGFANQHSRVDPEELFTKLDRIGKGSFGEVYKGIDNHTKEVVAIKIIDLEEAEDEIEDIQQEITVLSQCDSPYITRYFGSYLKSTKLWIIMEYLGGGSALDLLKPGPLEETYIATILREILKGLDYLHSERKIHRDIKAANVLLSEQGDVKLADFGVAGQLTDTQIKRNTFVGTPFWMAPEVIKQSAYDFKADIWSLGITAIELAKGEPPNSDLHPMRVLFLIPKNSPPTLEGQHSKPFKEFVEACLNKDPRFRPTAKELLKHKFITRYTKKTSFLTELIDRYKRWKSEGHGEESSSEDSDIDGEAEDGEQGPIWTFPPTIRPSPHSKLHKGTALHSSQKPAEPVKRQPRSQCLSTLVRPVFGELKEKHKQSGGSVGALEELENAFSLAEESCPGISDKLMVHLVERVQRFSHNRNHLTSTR

SMILES | residual activity
COc1cc2c(N3CCN(C(=O)Nc4ccc(OC(C)C)cc4)CC3)ncnc2cc1OCCCN1CCCCC1 | 93.4%
N#C/C(=C1/Nc2ccccc2S1)c1ccnc(NCCc2cccnc2)n1 | 97.7%
O=C1NC(=O)c2c1c1c3ccccc3[nH]c1c1[nH]c3cc(Br)ccc3c21 | 84.4%
O=c1[nH]c2ccccc2n1C1CCN(Cc2ccc(-c3nc4cc5[nH]cnc5cc4nc3-c3ccccc3)cc2)CC1 | 89.8%

These compounds were tested against GRK4 (human) (UniProt P32298) in the same assay as above. Details: compound 0.5 µM; ATP 10 µM.

SMILES | residual activity
COc1cc2c(N3CCN(C(=O)Nc4ccc(OC(C)C)cc4)CC3)ncnc2cc1OCCCN1CCCCC1 | 106%
N#C/C(=C1/Nc2ccccc2S1)c1ccnc(NCCc2cccnc2)n1 | 103%
O=C1NC(=O)c2c1c1c3ccccc3[nH]c1c1[nH]c3cc(Br)ccc3c21 | 99.8%
O=c1[nH]c2ccccc2n1C1CCN(Cc2ccc(-c3nc4cc5[nH]cnc5cc4nc3-c3ccccc3)cc2)CC1 | 104%

Each compound was assayed against PRKCZ (human) (UniProt Q05513) in the same assay as above. Details: compound 0.5 µM; ATP 10 µM.
PRKCZ (human), sequence (Q05513 whole entry, looked up): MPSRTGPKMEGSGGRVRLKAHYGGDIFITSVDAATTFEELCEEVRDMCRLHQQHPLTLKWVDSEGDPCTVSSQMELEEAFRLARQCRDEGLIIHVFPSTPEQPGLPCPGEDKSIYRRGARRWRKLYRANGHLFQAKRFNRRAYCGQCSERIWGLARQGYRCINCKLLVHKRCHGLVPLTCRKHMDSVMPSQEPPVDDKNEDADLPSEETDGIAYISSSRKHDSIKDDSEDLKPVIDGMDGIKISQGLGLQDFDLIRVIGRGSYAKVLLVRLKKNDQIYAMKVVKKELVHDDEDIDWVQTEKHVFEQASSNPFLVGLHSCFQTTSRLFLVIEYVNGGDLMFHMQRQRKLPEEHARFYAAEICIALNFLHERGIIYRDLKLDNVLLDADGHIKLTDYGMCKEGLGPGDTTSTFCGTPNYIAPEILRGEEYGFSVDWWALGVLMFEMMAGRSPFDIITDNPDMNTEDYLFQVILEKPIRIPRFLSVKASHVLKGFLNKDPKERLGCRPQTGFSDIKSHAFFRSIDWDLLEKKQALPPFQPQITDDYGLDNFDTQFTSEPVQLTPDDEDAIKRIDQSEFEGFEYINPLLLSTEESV

SMILES | residual activity
COc1cc2c(N3CCN(C(=O)Nc4ccc(OC(C)C)cc4)CC3)ncnc2cc1OCCCN1CCCCC1 | 103%
N#C/C(=C1/Nc2ccccc2S1)c1ccnc(NCCc2cccnc2)n1 | 102%
O=C1NC(=O)c2c1c1c3ccccc3[nH]c1c1[nH]c3cc(Br)ccc3c21 | 91.8%
O=c1[nH]c2ccccc2n1C1CCN(Cc2ccc(-c3nc4cc5[nH]cnc5cc4nc3-c3ccccc3)cc2)CC1 | 102%

The compounds below were run against PRKCA (human) (UniProt P17252) in the same assay as above. Details: compound 0.5 µM; ATP 10 µM.

SMILES | residual activity
COc1cc2c(N3CCN(C(=O)Nc4ccc(OC(C)C)cc4)CC3)ncnc2cc1OCCCN1CCCCC1 | 109%
N#C/C(=C1/Nc2ccccc2S1)c1ccnc(NCCc2cccnc2)n1 | 94.3%
O=C1NC(=O)c2c1c1c3ccccc3[nH]c1c1[nH]c3cc(Br)ccc3c21 | 72.5%
O=c1[nH]c2ccccc2n1C1CCN(Cc2ccc(-c3nc4cc5[nH]cnc5cc4nc3-c3ccccc3)cc2)CC1 | 84.3%

These compounds were tested against JAK2 JH1 JH2 (human) (UniProt O60674) in the same assay as above. Details: compound 0.5 µM; ATP 10 µM.

SMILES | residual activity
COc1cc2c(N3CCN(C(=O)Nc4ccc(OC(C)C)cc4)CC3)ncnc2cc1OCCCN1CCCCC1 | 101%
N#C/C(=C1/Nc2ccccc2S1)c1ccnc(NCCc2cccnc2)n1 | 106%
O=C1NC(=O)c2c1c1c3ccccc3[nH]c1c1[nH]c3cc(Br)ccc3c21 | 95.8%
O=c1[nH]c2ccccc2n1C1CCN(Cc2ccc(-c3nc4cc5[nH]cnc5cc4nc3-c3ccccc3)cc2)CC1 | 104%

The compounds below were run against PTK2 (human) (UniProt Q05397) in the same assay as above. Details: compound 0.5 µM; ATP 10 µM.

SMILES | residual activity
COc1cc2c(N3CCN(C(=O)Nc4ccc(OC(C)C)cc4)CC3)ncnc2cc1OCCCN1CCCCC1 | 101%
N#C/C(=C1/Nc2ccccc2S1)c1ccnc(NCCc2cccnc2)n1 | 93%
O=C1NC(=O)c2c1c1c3ccccc3[nH]c1c1[nH]c3cc(Br)ccc3c21 | 91.8%
O=c1[nH]c2ccccc2n1C1CCN(Cc2ccc(-c3nc4cc5[nH]cnc5cc4nc3-c3ccccc3)cc2)CC1 | 108%

These compounds were tested against SRMS (human) (UniProt Q9H3Y6) in the same assay as above. Details: compound 0.5 µM; ATP 10 µM.
SRMS (human), sequence (Q9H3Y6 whole entry, looked up): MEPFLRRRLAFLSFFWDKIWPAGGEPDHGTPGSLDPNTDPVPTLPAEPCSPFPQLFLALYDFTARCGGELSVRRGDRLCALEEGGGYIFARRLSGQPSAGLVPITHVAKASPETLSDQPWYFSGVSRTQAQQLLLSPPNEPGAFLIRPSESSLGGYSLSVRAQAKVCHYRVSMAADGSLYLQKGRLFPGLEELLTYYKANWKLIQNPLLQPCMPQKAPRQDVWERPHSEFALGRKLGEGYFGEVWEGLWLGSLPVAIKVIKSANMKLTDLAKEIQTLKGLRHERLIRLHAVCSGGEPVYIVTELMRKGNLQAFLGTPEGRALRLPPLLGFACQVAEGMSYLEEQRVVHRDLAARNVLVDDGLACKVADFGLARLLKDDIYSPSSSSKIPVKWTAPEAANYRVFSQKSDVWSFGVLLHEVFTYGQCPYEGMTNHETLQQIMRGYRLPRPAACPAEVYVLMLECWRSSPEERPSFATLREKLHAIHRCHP

SMILES | residual activity
COc1cc2c(N3CCN(C(=O)Nc4ccc(OC(C)C)cc4)CC3)ncnc2cc1OCCCN1CCCCC1 | 95.8%
N#C/C(=C1/Nc2ccccc2S1)c1ccnc(NCCc2cccnc2)n1 | 106%
O=C1NC(=O)c2c1c1c3ccccc3[nH]c1c1[nH]c3cc(Br)ccc3c21 | 91.5%
O=c1[nH]c2ccccc2n1C1CCN(Cc2ccc(-c3nc4cc5[nH]cnc5cc4nc3-c3ccccc3)cc2)CC1 | 93.1%

These compounds were tested against CAMK1 (human) (UniProt Q14012) in the same assay as above. Details: compound 0.5 µM; ATP 10 µM.
CAMK1 (human), sequence (Q14012 whole entry, looked up): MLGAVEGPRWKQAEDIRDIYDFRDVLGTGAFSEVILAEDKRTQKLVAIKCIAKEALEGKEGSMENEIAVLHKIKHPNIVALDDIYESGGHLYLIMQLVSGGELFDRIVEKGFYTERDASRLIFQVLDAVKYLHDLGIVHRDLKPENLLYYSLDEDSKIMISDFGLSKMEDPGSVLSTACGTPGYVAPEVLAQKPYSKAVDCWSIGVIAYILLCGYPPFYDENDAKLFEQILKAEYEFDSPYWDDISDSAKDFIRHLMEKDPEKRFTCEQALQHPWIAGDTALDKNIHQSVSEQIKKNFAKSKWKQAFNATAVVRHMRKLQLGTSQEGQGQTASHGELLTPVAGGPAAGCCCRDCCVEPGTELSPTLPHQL

SMILES | residual activity
COc1cc2c(N3CCN(C(=O)Nc4ccc(OC(C)C)cc4)CC3)ncnc2cc1OCCCN1CCCCC1 | 101%
N#C/C(=C1/Nc2ccccc2S1)c1ccnc(NCCc2cccnc2)n1 | 101%
O=C1NC(=O)c2c1c1c3ccccc3[nH]c1c1[nH]c3cc(Br)ccc3c21 | 99%
O=c1[nH]c2ccccc2n1C1CCN(Cc2ccc(-c3nc4cc5[nH]cnc5cc4nc3-c3ccccc3)cc2)CC1 | 95.1%

Each compound was assayed against EPHA4 (human) (UniProt P54764) in the same assay as above. Details: compound 0.5 µM; ATP 10 µM.
EPHA4 (human), sequence (P54764 whole entry, looked up): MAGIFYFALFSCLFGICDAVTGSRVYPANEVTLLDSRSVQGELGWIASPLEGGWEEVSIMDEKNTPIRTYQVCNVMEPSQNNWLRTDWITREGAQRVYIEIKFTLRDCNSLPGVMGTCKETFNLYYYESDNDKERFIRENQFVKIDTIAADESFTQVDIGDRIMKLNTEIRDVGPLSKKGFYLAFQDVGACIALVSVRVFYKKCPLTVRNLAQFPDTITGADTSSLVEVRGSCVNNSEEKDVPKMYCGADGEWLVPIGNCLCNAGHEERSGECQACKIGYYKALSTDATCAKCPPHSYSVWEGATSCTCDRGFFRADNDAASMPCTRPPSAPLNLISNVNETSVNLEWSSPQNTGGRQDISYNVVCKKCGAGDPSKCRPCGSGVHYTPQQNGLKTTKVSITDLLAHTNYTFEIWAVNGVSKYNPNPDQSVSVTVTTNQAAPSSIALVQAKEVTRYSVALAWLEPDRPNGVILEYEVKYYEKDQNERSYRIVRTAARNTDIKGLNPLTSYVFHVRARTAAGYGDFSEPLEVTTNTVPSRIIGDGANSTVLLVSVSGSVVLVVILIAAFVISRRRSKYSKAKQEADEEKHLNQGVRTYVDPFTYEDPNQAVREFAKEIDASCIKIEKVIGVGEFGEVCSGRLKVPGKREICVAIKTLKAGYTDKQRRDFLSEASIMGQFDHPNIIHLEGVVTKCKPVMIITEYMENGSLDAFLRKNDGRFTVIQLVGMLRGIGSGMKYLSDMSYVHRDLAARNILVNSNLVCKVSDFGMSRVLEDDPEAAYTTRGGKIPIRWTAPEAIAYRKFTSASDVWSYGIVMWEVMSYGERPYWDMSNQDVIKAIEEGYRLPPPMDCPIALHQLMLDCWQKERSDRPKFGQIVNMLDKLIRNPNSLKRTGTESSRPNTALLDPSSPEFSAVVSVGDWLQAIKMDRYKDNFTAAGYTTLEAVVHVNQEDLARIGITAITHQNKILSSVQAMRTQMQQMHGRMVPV

SMILES | residual activity
COc1cc2c(N3CCN(C(=O)Nc4ccc(OC(C)C)cc4)CC3)ncnc2cc1OCCCN1CCCCC1 | 96.4%
N#C/C(=C1/Nc2ccccc2S1)c1ccnc(NCCc2cccnc2)n1 | 104%
O=C1NC(=O)c2c1c1c3ccccc3[nH]c1c1[nH]c3cc(Br)ccc3c21 | 91.3%
O=c1[nH]c2ccccc2n1C1CCN(Cc2ccc(-c3nc4cc5[nH]cnc5cc4nc3-c3ccccc3)cc2)CC1 | 97.1%

These compounds were tested against FRK (human) (UniProt P42685) in the same assay as above. Details: compound 0.5 µM; ATP 10 µM.
FRK (human), sequence (P42685 whole entry, looked up): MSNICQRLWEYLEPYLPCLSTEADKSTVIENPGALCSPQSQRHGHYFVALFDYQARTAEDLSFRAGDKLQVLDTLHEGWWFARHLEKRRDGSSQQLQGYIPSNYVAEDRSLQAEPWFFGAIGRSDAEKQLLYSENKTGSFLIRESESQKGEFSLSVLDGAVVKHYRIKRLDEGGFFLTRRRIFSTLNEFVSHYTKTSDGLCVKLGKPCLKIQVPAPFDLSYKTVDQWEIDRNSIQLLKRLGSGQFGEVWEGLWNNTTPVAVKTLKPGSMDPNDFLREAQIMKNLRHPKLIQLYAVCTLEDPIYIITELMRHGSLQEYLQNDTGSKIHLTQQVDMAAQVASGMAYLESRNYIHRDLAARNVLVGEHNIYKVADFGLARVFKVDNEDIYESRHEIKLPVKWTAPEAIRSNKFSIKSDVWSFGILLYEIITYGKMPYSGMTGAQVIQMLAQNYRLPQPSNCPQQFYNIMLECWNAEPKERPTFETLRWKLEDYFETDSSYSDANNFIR

SMILES | residual activity
COc1cc2c(N3CCN(C(=O)Nc4ccc(OC(C)C)cc4)CC3)ncnc2cc1OCCCN1CCCCC1 | 101%
N#C/C(=C1/Nc2ccccc2S1)c1ccnc(NCCc2cccnc2)n1 | 97.5%
O=C1NC(=O)c2c1c1c3ccccc3[nH]c1c1[nH]c3cc(Br)ccc3c21 | 93.9%
O=c1[nH]c2ccccc2n1C1CCN(Cc2ccc(-c3nc4cc5[nH]cnc5cc4nc3-c3ccccc3)cc2)CC1 | 102%

These compounds were tested against CDK1 CCNB1 (human) (UniProt P06493+P14635) in the same assay as above. Details: compound 0.5 µM.

SMILES | residual activity
O=c1[nH]c2ccccc2n1C1CCN(Cc2ccc(-c3nc4cc5[nH]cnc5cc4nc3-c3ccccc3)cc2)CC1 | 85%

Same assay, conditions: compound 0.5 µM; ATP 10 µM

SMILES | residual activity
COc1cc2c(N3CCN(C(=O)Nc4ccc(OC(C)C)cc4)CC3)ncnc2cc1OCCCN1CCCCC1 | 97.1%
N#C/C(=C1/Nc2ccccc2S1)c1ccnc(NCCc2cccnc2)n1 | 96.8%
O=C1NC(=O)c2c1c1c3ccccc3[nH]c1c1[nH]c3cc(Br)ccc3c21 | 47.8%

The compounds below were run against RPS6KA2 KD1 KD2 (human) (UniProt Q15349) in the same assay as above. Details: compound 0.5 µM; ATP 10 µM.

SMILES | residual activity
COc1cc2c(N3CCN(C(=O)Nc4ccc(OC(C)C)cc4)CC3)ncnc2cc1OCCCN1CCCCC1 | 98.6%
N#C/C(=C1/Nc2ccccc2S1)c1ccnc(NCCc2cccnc2)n1 | 89.6%
O=C1NC(=O)c2c1c1c3ccccc3[nH]c1c1[nH]c3cc(Br)ccc3c21 | 37.9%
O=c1[nH]c2ccccc2n1C1CCN(Cc2ccc(-c3nc4cc5[nH]cnc5cc4nc3-c3ccccc3)cc2)CC1 | 101%

What follows are compounds tested against ROCK2 (human) (UniProt O75116) in the same assay as above. Details: compound 0.5 µM; ATP 10 µM.

SMILES | residual activity
COc1cc2c(N3CCN(C(=O)Nc4ccc(OC(C)C)cc4)CC3)ncnc2cc1OCCCN1CCCCC1 | 90.8%
N#C/C(=C1/Nc2ccccc2S1)c1ccnc(NCCc2cccnc2)n1 | 83.6%
O=C1NC(=O)c2c1c1c3ccccc3[nH]c1c1[nH]c3cc(Br)ccc3c21 | 72.7%
O=c1[nH]c2ccccc2n1C1CCN(Cc2ccc(-c3nc4cc5[nH]cnc5cc4nc3-c3ccccc3)cc2)CC1 | 109%

The compounds below were run against TNK2 (human) (UniProt Q07912) in the same assay as above. Details: compound 0.5 µM; ATP 10 µM.
TNK2 (human), sequence (Q07912 whole entry, looked up): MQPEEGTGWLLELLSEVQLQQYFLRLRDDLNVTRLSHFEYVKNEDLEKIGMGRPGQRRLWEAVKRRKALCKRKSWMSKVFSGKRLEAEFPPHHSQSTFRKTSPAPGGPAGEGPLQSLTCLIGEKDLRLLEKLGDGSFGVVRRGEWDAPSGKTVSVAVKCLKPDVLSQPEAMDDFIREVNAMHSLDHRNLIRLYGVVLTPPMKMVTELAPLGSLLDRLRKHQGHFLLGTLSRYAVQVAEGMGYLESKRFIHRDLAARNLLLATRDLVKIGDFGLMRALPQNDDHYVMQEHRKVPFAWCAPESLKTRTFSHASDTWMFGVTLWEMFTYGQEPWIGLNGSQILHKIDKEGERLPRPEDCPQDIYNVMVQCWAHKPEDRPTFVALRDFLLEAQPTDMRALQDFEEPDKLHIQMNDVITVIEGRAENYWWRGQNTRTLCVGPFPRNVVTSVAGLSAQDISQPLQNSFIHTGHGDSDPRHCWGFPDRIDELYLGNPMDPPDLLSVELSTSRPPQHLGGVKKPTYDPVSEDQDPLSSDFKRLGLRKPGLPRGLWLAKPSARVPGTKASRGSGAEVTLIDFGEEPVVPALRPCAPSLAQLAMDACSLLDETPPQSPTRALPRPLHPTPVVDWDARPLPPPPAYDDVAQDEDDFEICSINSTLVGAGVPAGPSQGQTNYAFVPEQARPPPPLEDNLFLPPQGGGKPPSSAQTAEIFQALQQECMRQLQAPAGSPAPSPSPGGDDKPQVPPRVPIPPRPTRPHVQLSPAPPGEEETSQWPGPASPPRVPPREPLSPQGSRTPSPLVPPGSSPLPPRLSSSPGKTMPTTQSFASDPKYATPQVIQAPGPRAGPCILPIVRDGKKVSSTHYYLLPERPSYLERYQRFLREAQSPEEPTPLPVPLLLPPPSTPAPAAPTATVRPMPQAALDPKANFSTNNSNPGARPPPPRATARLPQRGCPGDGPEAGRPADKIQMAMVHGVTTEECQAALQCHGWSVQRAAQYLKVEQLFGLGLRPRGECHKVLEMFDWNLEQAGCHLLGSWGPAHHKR

SMILES | residual activity
COc1cc2c(N3CCN(C(=O)Nc4ccc(OC(C)C)cc4)CC3)ncnc2cc1OCCCN1CCCCC1 | 92.7%
N#C/C(=C1/Nc2ccccc2S1)c1ccnc(NCCc2cccnc2)n1 | 42.8%
O=C1NC(=O)c2c1c1c3ccccc3[nH]c1c1[nH]c3cc(Br)ccc3c21 | 97.4%
O=c1[nH]c2ccccc2n1C1CCN(Cc2ccc(-c3nc4cc5[nH]cnc5cc4nc3-c3ccccc3)cc2)CC1 | 92.3%

These compounds were tested against CSNK1G1 (human) (UniProt Q9HCP0) in the same assay as above. Details: compound 0.5 µM; ATP 10 µM.

SMILES | residual activity
COc1cc2c(N3CCN(C(=O)Nc4ccc(OC(C)C)cc4)CC3)ncnc2cc1OCCCN1CCCCC1 | 98%
N#C/C(=C1/Nc2ccccc2S1)c1ccnc(NCCc2cccnc2)n1 | 88.8%
O=C1NC(=O)c2c1c1c3ccccc3[nH]c1c1[nH]c3cc(Br)ccc3c21 | 96.2%
O=c1[nH]c2ccccc2n1C1CCN(Cc2ccc(-c3nc4cc5[nH]cnc5cc4nc3-c3ccccc3)cc2)CC1 | 99.3%
